# Measurements taken from patent US20230390297A1, “USE OF NUCLEOTIDE SYNTHESIS INHIBITORS FOR TARGETED THERAPY IN MLL3/4 COMPASS MUTANT CANCER” (priority 2022, published 2023).
# What was measured:
# [1] = system: RKO, HCT116, DLD1, Caco2, HT55 and SW1417 cells; test: Western blot of cell cycle and apoptosis markers in colorectal cancer cells; format: cell-based, human; conditions: 1 μM LTX, 24 hours; MLL4 mutant vs WT cells
# Procedure: FIG. 5. MLL4 mutant colorectal cancer cells are selectively sensitive to lometrexol treatment. (A) 100 μL of 0.5×10^5 cells/mL cells were seeded in 96-well plates one day before treatment. Cells were treated with 0-30 μM lometrexol (LTX) with 3× fold dilution for 72 hours. CellTiter-Glo® luminescent cell viability assay was performed to determine the percentage of inhibition under these conditions. The line plot compares sensitivity difference of all cell lines tested. (B) RKO, HCT116, DLD1, Caco2, HT55 and SW1417 cells were treated with DMSO or 1 μM LTX for 24 hours and whole cell lysates were used for western blot against cell cycle (H3 Ser10-p, CDT1, CyclinB 1, Geminin, CyclinEl, CyclinA2, p-cdc2) and apoptosis (PARP, Caspase3) markers using Hsp90 and I3-tubulin as loading control. […] (F) A subset of representative terms from the full cluster were selected and converted into a network layout. Each term is represented by a circle node, where its size is proportional to the number of input genes fall under that term, and its color represent its cluster identity. Terms with a similarity score>0.3 are linked by an edge (the thickness of the edge represents the similarity score). The network is visualized with Cytoscape with “force-directed” layout and with edge bundled for clarity. One term from each cluster is selected to have its term description shown as label. […]
# HT55 (MLL4 WT) xenograft = test: HT55 subcutaneous xenograft in nude mice; format: in vivo
# Procedure: FIG. 20. Lometrexol application in MLL4 mutant tumors in the xenograft mouse models. (A-D) Tumor development after inoculation of 4×10^6 of HT55 cells into the nude mice. Mice with HT55 subcutaneous (sc) tumor were either treated with vehicle (DMSO, n=9) or LTX (15 mg/kg, n=9) daily for 7 days. (A) Growth plots for sc tumors in each treatment group were shown. Tumor volumes (mm3) show mean and upper SD. (B) Dot plot representation of sc tumor volume in mice at day 18 post-tumor cell injection. […] (C) Photographs of nude mice (upper) and sc tumor taken from these mice (lower) in which HT55 cells were inoculated into the right flank. (D) Animal survival at the indicated days after inoculation. Log-rank test was used for comparisons between DMSO and LTX treatment. (E-H) Tumor development after inoculation of 4×10^6 of HCT116 cells into the nude mice. […]
# Six-week-old female athymic mice (nu/nu genotype, BALB/c background) were purchased from Envigo (Indianapolis, IN, USA) and housed under aseptic conditions. […] The tumor sizes were measured on alternate days and the mice were euthanized when the tumor size reached 1000 mm^3. […]
# For in vivo study, the Kaplan-Meier estimator and Prism software were used to generate and analyze survival plots. Differences between survival plots were calculated using a log-rank test. […]
compound,measurement,setting,value
"Nc1nc2c(c(=O)[nH]1)C[C@@H](CCc1ccc(C(=O)N[C@@H](CCC(=O)O)C(=O)O)cc1)CN2 [lometrexol, (2S)-2-[[4-[2-[(6R)-2-amino-4-oxo-5,6,7,8-tetrahydro-3H-pyrido[2,3-d]pyrimidin-6-yl]ethyl]benzoyl]amino]pentanedioic acid]","cell cycle markers H3 Ser10-p, CDT1, CyclinB1 (western blot)",[1],"significant downregulation of histone H3 Serine10 phosphorylation (H3 Ser10-p), CDT1 and CyclinB1 was observed only in MLL4 mutant cells but not WT cells"
same,"sc tumor volume at day 18 post-tumor cell injection, DMSO vs LTX (unpaired t-test)",HT55 (MLL4 WT) xenograft; LTX 15 mg/kg daily for 7 days,not statistically significant
same,tumor growth,HT55 (MLL4 WT) xenograft; LTX 15 mg/kg daily for 7 days vs DMSO,almost completely resistant to LTX
